# According to ChEMBL document CHEMBL1201862, “PubChem BioAssay data set” (2004):
#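 Test compounds were applied to cells in 96-well plates for 48 hours at 5 doses. GI50 is the concentration that inhibits growth by half.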 The source made the active and inactive calls. No stated cut-off is given here; in the data, active = GI50 up to about 1.1 µM and inactive = higher.
# Assays:
# Assay in all cases: NCI-60 cell line screen, 48 h
# SK-MEL-28 = test system: SK-MEL-28
# OVCAR-3 = test system: OVCAR-3
# HCT-15 = test system: HCT-15
# 786-0 = test system: 786-0
# RXF 393 = test system: RXF 393
# SF-295 = test system: SF-295
# SNB-19 = test system: SNB-19
# HL-60 = test system: HL-60
# HOP-62 = test system: HOP-62
# SF-539 = test system: SF-539
# ACHN = test system: ACHN
# SK-MEL-5 = test system: SK-MEL-5
# M14 = test system: M14
# KM-20L2 = test system: KM-20L2
# SNB-78 = test system: SNB-78
# SW-620 = test system: SW-620
# CAKI-1 = test system: CAKI-1
# TK-10 = test system: TK-10
# NCI-H460 = test system: NCI-H460
# UACC-257 = test system: UACC-257
# DLD-1 = test system: DLD-1
# UO-31 = test system: UO-31
# NCI-H23 = test system: NCI-H23
# Malme-3M = test system: Malme-3M
# SN12C = test system: SN12C
# A498 = test system: A498
# HCT-116 = test system: HCT-116
# LOX IMVI = test system: LOX IMVI
# DMS-114 = test system: DMS-114
# EKVX = test system: EKVX
# DMS-273 = test system: DMS-273
# HOP-18 = test system: HOP-18
# OVCAR-4 = test system: OVCAR-4
# XF498 = test system: XF498
# HT-29 = test system: HT-29
# M19-MEL = test system: M19-MEL
# MOLT-4 = test system: MOLT-4
# SK-OV-3 = test system: SK-OV-3
# LXFL 529 = test system: LXFL 529
# CCRF-CEM = test system: CCRF-CEM
# A549 = test system: A549
# HCC 2998 = test system: HCC 2998
# U-251 = test system: U-251
# K562 = test system: K562
# HOP-92 = test system: HOP-92
# SNB-75 = test system: SNB-75
# OVCAR-8 = test system: OVCAR-8
# KM12 = test system: KM12
# RXF 631 = test system: RXF 631
# IGROV-1 = test system: IGROV-1
# UACC-62 = test system: UACC-62
# SR = test system: SR
# OVCAR-5 = test system: OVCAR-5
# SF-268 = test system: SF-268
# RPMI-8226 = test system: RPMI-8226
# NCI-H226 = test system: NCI-H226
# COLO 205 = test system: COLO 205
# NCI-H522 = test system: NCI-H522
# SK-MEL-2 = test system: SK-MEL-2
structure (smiles),measurement,setting,value
COC(=O)C1=C(O)c2cc3c(cc2[C@H](c2cc(OC)c(OC)c(OC)c2)C1C(=O)OC)OCO3 (some centres not stated),GI50,SK-MEL-28,52.8 µM (inactive)
same,GI50,OVCAR-3,30.4 µM (inactive)
same,GI50,HCT-15,> 100 µM
same,GI50,786-0,42.7 µM (inactive)
same,GI50,RXF 393,30.2 µM (inactive)
same,GI50,SF-295,57 µM (inactive)
same,GI50,SNB-19,> 100 µM (inactive)
same,GI50,HL-60,> 100 µM (inactive)
same,GI50,HOP-62,> 100 µM (inactive)
same,GI50,SF-539,20.7 µM (inactive)
same,GI50,ACHN,22.1 µM (inactive)
same,GI50,SK-MEL-5,32.8 µM (inactive)
same,GI50,M14,89.5 µM (inactive)
same,GI50,KM-20L2,> 100 µM (inactive)
same,GI50,SNB-78,53.2 µM (inactive)
same,GI50,SW-620,80.2 µM (inactive)
same,GI50,CAKI-1,25.2 µM (inactive)
same,GI50,TK-10,31.3 µM (inactive)
same,GI50,NCI-H460,61 µM (inactive)
same,GI50,UACC-257,47.3 µM (inactive)
same,GI50,DLD-1,67 µM (inactive)
same,GI50,UO-31,42.3 µM (inactive)
same,GI50,NCI-H23,> 100 µM (inactive)
same,GI50,Malme-3M,28.9 µM (inactive)
same,GI50,SN12C,25.5 µM (inactive)
same,GI50,A498,76 µM (inactive)
same,GI50,HCT-116,34.7 µM (inactive)
same,GI50,LOX IMVI,> 100 µM (inactive)
same,GI50,DMS-114,25 µM (inactive)
same,GI50,EKVX,68.2 µM (inactive)
same,GI50,DMS-273,65.2 µM (inactive)
same,GI50,HOP-18,29.2 µM (inactive)
same,GI50,OVCAR-4,30.2 µM (inactive)
same,GI50,XF498,25.1 µM (inactive)
same,GI50,HT-29,95.5 µM (inactive)
same,GI50,M19-MEL,39.5 µM (inactive)
same,GI50,MOLT-4,58.9 µM (inactive)
same,GI50,SK-OV-3,44.1 µM (inactive)
same,GI50,LXFL 529,56.5 µM (inactive)
same,GI50,CCRF-CEM,> 100 µM (inactive)
same,GI50,A549,> 100 µM (inactive)
same,GI50,HCC 2998,> 100 µM (inactive)
same,GI50,U-251,82.8 µM (inactive)
same,GI50,K562,72.1 µM (inactive)
same,GI50,HOP-92,33.7 µM (inactive)
same,GI50,SNB-75,22.8 µM (inactive)
same,GI50,OVCAR-8,39.5 µM (inactive)
same,GI50,KM12,35.2 µM (inactive)
same,GI50,RXF 631,> 100 µM (inactive)
same,GI50,IGROV-1,48.6 µM (inactive)
same,GI50,UACC-62,30.1 µM (inactive)
same,GI50,SR,86.5 µM (inactive)
same,GI50,OVCAR-5,> 100 µM (inactive)
same,GI50,SF-268,50.8 µM (inactive)
same,GI50,RPMI-8226,> 100 µM (inactive)
same,GI50,NCI-H226,33 µM (inactive)
same,GI50,COLO 205,19.7 µM (inactive)
COc1cc(C2C(C(=O)Nc3ccccc3C)=C(C)NC(C)=C2C(=O)Nc2ccccc2C)ccc1O,GI50,SK-MEL-28,> 100 µM (inactive)
same,GI50,OVCAR-3,> 100 µM (inactive)
same,GI50,786-0,> 100 µM (inactive)
same,GI50,RXF 393,> 100 µM (inactive)
same,GI50,SF-295,> 100 µM (inactive)
same,GI50,SNB-19,> 100 µM (inactive)
same,GI50,HL-60,60.4 µM (inactive)
same,GI50,HOP-62,> 100 µM (inactive)
same,GI50,SF-539,> 100 µM (inactive)
same,GI50,ACHN,> 100 µM (inactive)
same,GI50,SK-MEL-5,> 100 µM (inactive)
same,GI50,M14,> 100 µM (inactive)
same,GI50,KM-20L2,> 100 µM (inactive)
same,GI50,SNB-78,> 100 µM (inactive)
same,GI50,SW-620,> 100 µM (inactive)
same,GI50,CAKI-1,> 100 µM (inactive)
same,GI50,TK-10,> 100 µM (inactive)
same,GI50,NCI-H460,> 100 µM (inactive)
same,GI50,UACC-257,> 100 µM (inactive)
same,GI50,DLD-1,> 100 µM (inactive)
same,GI50,UO-31,> 100 µM (inactive)
same,GI50,NCI-H23,> 100 µM (inactive)
same,GI50,Malme-3M,> 100 µM (inactive)
same,GI50,SN12C,> 100 µM (inactive)
same,GI50,A498,> 100 µM (inactive)
same,GI50,HCT-116,> 100 µM (inactive)
same,GI50,NCI-H522,> 100 µM (inactive)
same,GI50,DMS-114,> 100 µM (inactive)
same,GI50,EKVX,> 100 µM (inactive)
same,GI50,DMS-273,> 100 µM (inactive)
same,GI50,HOP-18,> 100 µM (inactive)
same,GI50,OVCAR-4,> 100 µM (inactive)
same,GI50,XF498,87.5 µM (inactive)
same,GI50,HT-29,> 100 µM (inactive)
same,GI50,M19-MEL,> 100 µM (inactive)
same,GI50,MOLT-4,60.7 µM (inactive)
same,GI50,SK-OV-3,> 100 µM (inactive)
same,GI50,LXFL 529,> 100 µM (inactive)
same,GI50,CCRF-CEM,71.8 µM (inactive)
same,GI50,SK-MEL-2,> 100 µM (inactive)
same,GI50,A549,> 100 µM (inactive)
same,GI50,HCC 2998,> 100 µM (inactive)
same,GI50,U-251,> 100 µM (inactive)
same,GI50,K562,> 100 µM (inactive)
same,GI50,HOP-92,> 100 µM (inactive)
same,GI50,SNB-75,56.6 µM (inactive)
same,GI50,OVCAR-8,> 100 µM (inactive)
same,GI50,KM12,> 100 µM (inactive)
same,GI50,RXF 631,> 100 µM (inactive)
same,GI50,IGROV-1,> 100 µM (inactive)
same,GI50,UACC-62,> 100 µM (inactive)
same,GI50,OVCAR-5,> 100 µM (inactive)
same,GI50,RPMI-8226,84.7 µM (inactive)
same,GI50,NCI-H226,> 100 µM (inactive)
same,GI50,COLO 205,> 100 µM (inactive)
